Data reported in article PMC9775177, “NLRP3-Inflammasome Inhibition with IZD334 Does Not Reduce Cardiac Damage in a Pig Model of Myocardial Infarction” (Biomedicines, 2022).

Tests used:
[1] = IZD334 plasma concentrations in pigs subjected to MI; format: in vivo
Description: (§1) Oral treatment was continued for six days. […] Animals were sacrificed by exsanguination under anesthesia.
In vivo IZD334 concentrations were measured in plasma samples using mass-spectrometry. IZD334 content was quantified using positive ionization mode and multiple reaction monitoring on a Sciex API 5500 Mass spectrometer (MRM transition: 392.0 > 176.1).

[2] = tested on: pig model of myocardial infarction; test: In vivo MI study: regional cardiac function and dobutamine echocardiography; design: species or system pigs; conditions: high-dose group (10 mg/kg), 7 days follow-up
Text: as §1
Images were made using a X7-2T transducer on an iE33 ultrasound device (Philips, Eindhoven, The Netherlands). The pig was placed in the right lateral position, and the echo probe was inserted 50–60 cm into the esophagus. We used the 3D full volume option and temporarily interrupted mechanical ventilation to assess LV geometry and function. On day 7 we additionally obtained dobutamine stress-echocardiography to assess regional cardiac function. Images were analyzed in a blinded fashion with validated software, QLab 10.7 (Philips, Eindhoven, The Netherlands).

[3] = tested on: pig model of myocardial infarction; test: In vivo MI study: serological and histological read-outs; design: species or system pigs; conditions: 1, 3, 10 mg/kg groups
Description: Circulating leukocyte numbers at different time points after reperfusion were measured by whole-blood analysis using an automated hematological cell-counter (Cell-Dyn Sapphire, Abbott, Santa Clara, CA, USA). Plasma samples were obtained by whole-blood centrifugation at 1850× g and were immediately stored at −80 °C. C-reactive protein (CRP) levels were measured using solid phase DuoSet sandwich ELISA (DY1707, R&D Systems, Minneapolis, MN, USA) according to the manufacturer’s protocol. Troponin I levels were measured using a clinical chemistry analyzer (AU5811, Beckman Coulter, Woerden, The Netherlands). Histological analysis of collagen, myocardial immune cells, neutrophils, and monocyte infiltration is described in the Appendix A.
Infarcted and border zoned myocardial tissues were collected, and protein was isolated using a Roche protein isolation kit (cOmplete™ Lysis-M EDTA-free, Roche, Basel, Switzerland). IL-1β protein was measured with a Luminex Immunoassay specific for pig IL-1β (ProcartaPlex Pig IL-1β simplex Cat# EXP01A-66048-901 Invitrogen, Thermo Fisher Scientific, MA, USA) and corrected for total protein. For further histological analysis, infarcted and BZ myocardial tissue was processed, paraffin-imbedded, and cut into 5 µm sections after being conserved in 4% paraformaldehyde for 7 days. Cell nuclei were stained using hematoxylin, and area of cell infiltration was counted for each pig in 5 regions close to fibrotic areas in the infarct zone using Olympus CellSens software. Collagen was visualized using Picosirus Red staining (Abcam). The percentage of collagen was quantified using ImageJ software (1.47v).
Neutrophil infiltration in myocardial tissue was quantified in paraffin-embedded histological biopsies that were conserved in 4% formaldehyde for at least 7 days with a monoclonal mouse antibody against porcine neutrophils (Clone PM1, BMA Biomedicals, Augst, Switzerland) for 60 min and secondary incubation with Brightvision Poly-AP-anti-mouse (ImmunoLogic, Duiven, The Netherlands) for 30 min followed by development with liquid permanent red.
Monocyte infiltration was quantified in histological slides of myocardial tissue (paraffin and fresh frozen slides, respectively) using a monoclonal mouse anti-pig antibody against CD107a (Clone JM2E5, Bio-Rad, Kidlington, UK) or a mouse monoclonal antibody against CD14 (Ab23919, Abcam, Cambridge, UK); 60 min of incubation was followed by Brightvision Poly-AP-anti-mouse (ImmunoLogic, Duiven, The Netherlands) for 30 min and development with liquid permanent red.

[4] = infarct tissue, 7 days after MI
[5] = myocardial tissue, 7 days after MI

CCN1CCC(S(=O)(=O)[N-]C(=O)Nc2c3c(cc4c2CCC4)CCC3)CC1.[K+] [IZD334]
Concentration (ng/mL) Mean ([1]; 1 mg/kg group (10 mg/kg IV loading dose), Reperfusion + 4 h, n = 6): 13,192 ng/mL
Concentration (ng/mL) Mean ([1]; 1 mg/kg oral once daily group, Day 1, n = 6): 1434 ng/mL
Concentration (ng/mL) Mean ([1]; 1 mg/kg oral once daily group, Day 2, n = 6): 795 ng/mL
Concentration (ng/mL) Mean ([1]; 1 mg/kg oral once daily group, Day 3, n = 6): 555 ng/mL
Concentration (ng/mL) Mean ([1]; 1 mg/kg oral once daily group, Day 7, n = 6): 44 ng/mL
Concentration (ng/mL) Mean ([1]; 3 mg/kg group (10 mg/kg IV loading dose), Reperfusion + 4 h, n = 7): 11,992 ng/mL
Concentration (ng/mL) Mean ([1]; 3 mg/kg oral once daily group, Day 1, n = 7): 2090 ng/mL
Concentration (ng/mL) Mean ([1]; 3 mg/kg oral once daily group, Day 2, n = 7): 1501 ng/mL
Concentration (ng/mL) Mean ([1]; 3 mg/kg oral once daily group, Day 3, n = 7): 1190 ng/mL
Concentration (ng/mL) Mean ([1]; 3 mg/kg oral once daily group, Day 7, n = 7): 120 ng/mL
Concentration (ng/mL) Mean ([1]; 10 mg/kg group (10 mg/kg IV loading dose), Reperfusion + 4, n = 7): 12,312 ng/mL
Concentration (ng/mL) Mean ([1]; 10 mg/kg oral once daily group, Day 1, n = 7): 4522 ng/mL
Concentration (ng/mL) Mean ([1]; 10 mg/kg oral once daily group, Day 2, n = 7): 4213 ng/mL
Concentration (ng/mL) Mean ([1]; 10 mg/kg oral once daily group, Day 3, n = 7): 3887 ng/mL
Concentration (ng/mL) Mean ([1]; 10 mg/kg oral once daily group, Day 7, n = 7): 233 ng/mL
Fractional area changes at mitral, mid-ventricular, and apical levels versus placebo ([2]; data not shown): equal between groups
Septal and inferolateral systolic wall thickness and thickening versus placebo ([2]; mid-ventricular level): did not differ between these groups
CRP levels versus placebo ([3]; any time point during 7-day follow-up): No significant difference
Systemic troponin I levels versus placebo ([3]; 7-day follow-up): trends were similar between the treatment groups
Total leukocyte numbers versus placebo ([3]; circulating, 7-day follow-up): did not differ between groups
neutrophil counts versus placebo ([3]; circulating, 7-day follow-up): did not differ between groups
Intra-myocardial IL-1β levels versus placebo ([3]; infarct and border zone, 7 days after MI): without any difference among treatment arms
collagen formation (histology) versus placebo [3, 4]: no differences between the groups
total myocardial immune cell infiltration (histology) versus placebo [3, 4]: no differences between the groups
monocyte infiltration (histology) versus placebo [3, 5]: no differences between the groups
neutrophil infiltration (histology) versus placebo [3, 5]: no differences between the groups
